# Data published in patent publication US20260216368A1, “BIS-ESTER AND AMIDE CATIONIC LIPIDS” (SANOFI PASTEUR INC., priority 2022, published 2026).
# Tests used:
# [1] = RiboGreen assay, % encapsulation of mRNA in lipid nanoparticles; format: physicochemical; settings: hEPO mRNA LNP, Cationic Lipid:DMG-PEG2000:Cholesterol:DOPE=40:1.5:28.5:30, N/P ratio 4, Process A
# Description: In embodiments, the lipid nanoparticle encapsulates a nucleic acid, optionally an mRNA encoding a peptide or protein. In embodiments, the peptide is an antigen. In embodiments, the lipid nanoparticle encapsulates an mRNA encoding a peptide or protein. As used herein, the phrase “encapsulation percentage” refers to the fraction of therapeutic agent (e.g. mRNA) that is effectively encapsulated within a liposomal-based vehicle (e.g. a lipid nanoparticle) relative to the initial fraction of therapeutic agent present in the lipid phase. In embodiments, the lipid nanoparticles have an encapsulation percentage for mRNA of at least 50%. In embodiments, the lipid nanoparticles have an encapsulation percentage for mRNA of at least 55%. In embodiments, the lipid nanoparticles have an encapsulation percentage for mRNA of at least 60%. In embodiments, the lipid nanoparticles have an encapsulation percentage for mRNA of at least 65%. In embodiments, the lipid nanoparticles have an encapsulation percentage for mRNA of at least 70%. In embodiments, the lipid nanoparticles have an encapsulation percentage for mRNA of at least 75%. In embodiments, the lipid nanoparticles have an encapsulation percentage for mRNA of at least 80%. In embodiments, the lipid nanoparticles have an encapsulation percentage for mRNA of at least 85%. In embodiments, the lipid nanoparticles have an encapsulation percentage for mRNA of at least 90%. In embodiments, the lipid nanoparticles have an encapsulation percentage for mRNA of at least 95%. In embodiments, the encapsulation percentage is calculated by performing the Ribogreen assay (Invitrogen) with and without the presence of 0.1% Triton-X 100.
# The RiboGreen Assay is a fluorescence-based method for the determination of mRNA concentration (Total and Free) and % encapsulation using Quant-iT™ RiboGreen® RNA reagent in mRNA containing lipid nanoparticles.
# • To each of the standards (Blank, mRNA-1, mRNA-2. mRNA-3, mRNA-4, mRNA-5) and Samples (free mRNA and total mRNA), add 1.0 mL of 200-fold Ribogreen Reagent Solution and gently mix by inversion. This is a 2× Dilution. • Add 200 μL of each standard and sample in triplicate using the reverse pipetting technique in a 96-well Costar Black with Clear Background Plate. Ensure no bubbles are present in the plate before the fluorescence reading. • Read the fluorescence signal using the below instrument parameters: • Read Type: Fluorescence, Bottom Read • Excitation: 485 nm; Cut-off: 515 nm; Emission: 530 nm • Plate Type: 96-well Costar Black with Clear Background
# The average fluorescence from each calibration standard is plotted against the concentration to generate a linear calibration curve using the MS Excel software. The coefficient of determination (R^2) of calibration curve must be R^2>0.99.
# [formula] • Where, • Y=average fluorescence value • m: slope • x: concentration (pg/mL) • c: y-intercept • Using the linear equation, calculate the concentration of free and total mRNA concentration in the test sample by replacing the y value in the equation with the average fluorescence value of each respective sample • Once the concentration is determined, the actual concentration in the sample can be back-calculated by multiplying the concentration in the test sample with the dilution factor (DF) as follows:
# [formula] • Concentration of encapsulated mRNA can be determined by subtracting the concentration of free mRNA from the total mRNA. • % Encapsulation can then be calculated by taking the ratio of encapsulated mRNA over total mRNA and multiplying the result with 100.
# [2] = test system: Human erythropoietin (hEPO) levels in sera; experiment: Delivery of hEPO mRNA by intramuscular administration of lipid nanoparticles; serum hEPO by ELISA; format: in vivo, Mouse; settings: for hEPO 6 Hr (ng/mL) Mean / hEPO 24 Hr (ng/mL) Mean: serum, 0.1 μg/animal hEPO mRNA LNP, n=4; for hEPO 6 Hr (ng/mL) Mean: 6 hours post dose; for in vivo hEPO protein production (FIG. 51): intramuscular delivery of hEPO mRNA using lipid nanoparticles comprising the compound, result in words; for hEPO 24 Hr (ng/mL) Mean: 24 hours post dose
# Procedure: WO2022/099003 A1 describes an in vivo assay for intramuscular administration (e.g. on page 46, paragraph [00206]). Further details of the intramuscular experiment performed in this application are provided below.
# Treatment Regimen: On Day 1, animals from Groups 1-8 were dosed via intramuscular injection while under light isoflurane anesthesia according to the study design table above. Animals in Groups 2-8 were injected with EPO in the right leg only. Group 1 animals received saline control.
# Interim Sample Collections: Interim whole blood (~50 μL) was collected by tail snip or saphenous vein at 6 hours post dose administration (±5%). Blood samples were collected into serum separator tubes, allowed to clot at room temperature for at least 10 minutes, centrifuged at ambient temperature at minimum 1000 g for 10 minutes and the serum was extracted. All serum samples were stored at nominally −70° C. until analysis hEPO by the Testing Facility. The results of the EPO analysis were included in the Data Submission.
# Terminal Blood Collections: Whole blood was collected via cardiac puncture into serum separator tube, allowed to clot at room temperature for at least 10 minutes, centrifuged at ambient temperature at minimum 1000 g for 10 minutes and the serum was extracted. Serum samples were stored at nominally −70° C. until analyzed for hEPO by the Test Facility.
# ELISA Assay: Human erythropoietin (hEPO) levels in sera samples were determined by ELISA kit (R&D systems, Cat #DEP-00) according to the manufactory instruction and the results were included in the Data Submission. The “shaker” protocol was used. The serum samples were diluted between 1:40 and 1:100.
# The ability of the further exemplary lipid nanoparticles in Example 54 to deliver hEPO mRNA by intramuscular administration was tested in accordance with the experimental protocol set out in Example 52.
# [3] = DLS size and polydispersity of hEPO mRNA lipid nanoparticles; format: physicochemical; settings: hEPO mRNA LNP, Cationic Lipid:DMG-PEG2000:Cholesterol:DOPE=40:1.5:28.5:30, N/P ratio 4, Process A
# Procedure: The lipid nanoparticles in the examples of the present invention were formulated using Process A of WO 2018/089801 (see, e.g., Example 1 and FIG. 1 of WO 2018/089801). Process A (“A”) relates to a conventional method of encapsulating mRNA by mixing mRNA with a mixture of lipids, without first pre-forming the lipids into lipid nanoparticles. In an exemplary process, an ethanol lipid solution and an aqueous buffered solution of mRNA were prepared separately. A solution of mixture of lipids (cationic lipid, helper lipids, zwitterionic lipids, PEG lipids etc.) was prepared by dissolving lipids in ethanol. The mRNA solution was prepared by dissolving the mRNA in citrate buffer. Then, these two solutions were mixed using a pump system. In some instances, the two solutions were mixed using a gear pump system. In certain embodiments, the two solutions were mixing using a ‘T’ junction (or “Y” junction). The mixture was then purified by diafiltration with a TFF process. The resultant formulation concentrated and stored at 2-8° C. until further use.
# (§1) Lipid nanoparticle formulations of Table 1 were prepared by Process A. More specifically, an ethanolic solution of a mixture of lipids including DMG-PEG-2000, cationic lipid, cholesterol, and phosphatidylethanolamine (DOPE) in a ratio of 1.5:40:28.5:30 were combined with an aqueous buffered solution (1 mM Citrate and 150 mM NaCl) of target mRNA at an acidic pH (4.5) under controlled conditions to yield a dispersion of uniform lipid nanoparticles (LNPs). Upon ultrafiltration and diafiltration into the final buffer, the resulting nanoparticle dispersions were diluted to required concentration using the final buffer (10% Trehalose), sterile filtered and stored frozen at −80° C. until use.
# All of the lipid nanoparticle formulations comprised hEPO mRNA and the different lipids in following mol % ratios: Cationic Lipid: DMG-PEG2000; Cholesterol:DOPE=40:1.5:28.5:30.
# DLS measurements were performed using a Malvern Instruments Zetasizer with a backscattering detector angle of 173° and a 4-mW, 633-nm He—Ne laser (Worcestershire, UK). The samples were analyzed by diluting in 10% Trehalose and measuring the size and Poly dispersity Index (PDI) in an optical grade polystyrene cuvette.
# The following lipid nanoparticles were formulated according to Example 51.
# as §1, with “Table 3” for “Table 1”
# [4] = single IM injection, female BALB/cJ mice
SMILES,"Encapsulation Percentage (%) ([1]; Table 3, further LNPs)","hEPO 6 Hr (ng/mL) Mean ([2]; first occasion, IM, mice) [ng/mL]","PDI ([3]; Table 3, further LNPs)","Size (nm) ([3]; Table 3, further LNPs)",Encapsulation Percentage (%) ([1]; Table 1),in vivo hEPO protein production (FIG. 51) [2],"hEPO 6 Hr (ng/mL) Mean [2, 4] [ng/mL]","hEPO 24 Hr (ng/mL) Mean [2, 4] [ng/mL]",PDI ([3]; Table 1),Size (nm) ([3]; Table 1)
CCCCCCCCC(O)CN(CCCNC(=O)CC(C)(O)CC(=O)NCCCN(CC(O)CCCCCCCC)CC(O)CCCCCCCC)CC(O)CCCCCCCC (stereo not shown) [LXXXVIII],84,51.7,0.134,100,–,–,–,–,–,–
CCCCCCCCC(O)CN(CCCOC(=O)CN(C)CC(=O)OCCCN(CC(O)CCCCCCCC)CC(O)CCCCCCCC)CC(O)CCCCCCCC (stereo not shown) [XII],–,–,–,–,46,high levels of in vivo hEPO protein production,35.0,15.1,0.091,110
CCCCCCCCCCC(O)CN(CCCCOC(=O)CN(C)CC(=O)OCCCCN(CC(O)CCCCCCCCCC)CC(O)CCCCCCCCCC)CC(O)CCCCCCCCCC (stereo not shown) [XIV],–,–,–,–,67,high levels of in vivo hEPO protein production,33.9,18.3,0.098,101
CCCCCC/C=C\COC(=O)CCCCCC(O)CN(CCCOC(=O)CN(C)CC(=O)OCCCN(CC(O)CCCCCC(=O)OC/C=C\CCCCCC)CC(O)CCCCCC(=O)OC/C=C\CCCCCC)CC(O)CCCCCC(=O)OC/C=C\CCCCCC (stereo not shown) [XV],–,–,–,–,33,high levels of in vivo hEPO protein production,31.9,15.1,0.052,134
CCCCCCCCCCC(O)CN(CCCOC(=O)CCC(C)C(=O)OCCCN(CC(O)CCCCCCCCCC)CC(O)CCCCCCCCCC)CC(O)CCCCCCCCCC (stereo not shown) [XXXII],–,–,–,–,78,high levels of in vivo hEPO protein production,17.0,10.3,0.124,106
